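Test compounds were applied to cells in 96-well plates for 48 hours at 5 doses. The concentration for 50% growth inhibition is given as GI50. Definition used: TGI = concentration required for complete inhibition of growth.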
Experiments:
Assay in all cases: NCI tumour cell line growth inhibition, 48 h
786-0 renal = tested on: 786-0 renal
A498 renal = tested on: A498 renal
A549 NSCLC = tested on: A549 NSCLC
ACHN renal = tested on: ACHN renal
BT-549 breast = tested on: BT-549 breast
CAKI-1 renal = tested on: CAKI-1 renal
CCRF-CEM leukemia = tested on: CCRF-CEM leukemia
COLO 205 colon = tested on: COLO 205 colon
DU-145 prostate = tested on: DU-145 prostate
EKVX NSCLC = tested on: EKVX NSCLC
HCC-2998 colon = tested on: HCC-2998 colon
HCT-116 colon = tested on: HCT-116 colon
HCT-15 colon = tested on: HCT-15 colon
HL-60(TB) leukemia = tested on: HL-60(TB) leukemia
HOP-62 NSCLC = tested on: HOP-62 NSCLC
HOP-92 NSCLC = tested on: HOP-92 NSCLC
HS 578T breast = tested on: HS 578T breast
HT29 colon = tested on: HT29 colon
IGROV1 ovarian = tested on: IGROV1 ovarian
K-562 leukemia = tested on: K-562 leukemia
KM12 colon = tested on: KM12 colon
LOX IMVI melanoma = tested on: LOX IMVI melanoma
M14 melanoma = tested on: M14 melanoma
MALME-3M melanoma = tested on: MALME-3M melanoma
MCF7 breast = tested on: MCF7 breast
MDA-MB-231 breast = tested on: MDA-MB-231 breast
MDA-MB-435 = tested on: MDA-MB-435
MOLT-4 leukemia = tested on: MOLT-4 leukemia
NCI-H226 lung = tested on: NCI-H226 lung
NCI-H23 lung = tested on: NCI-H23 lung
NCI-H460 lung = tested on: NCI-H460 lung
NCI-H522 lung = tested on: NCI-H522 lung
NCI/ADR-RES ovarian = tested on: NCI/ADR-RES ovarian
OVCAR-3 ovarian = tested on: OVCAR-3 ovarian
OVCAR-4 ovarian = tested on: OVCAR-4 ovarian
OVCAR-5 ovarian = tested on: OVCAR-5 ovarian
OVCAR-8 ovarian = tested on: OVCAR-8 ovarian
PC-3 prostate = tested on: PC-3 prostate
RPMI-8226 leukemia = tested on: RPMI-8226 leukemia
RXF 393 renal = tested on: RXF 393 renal
SF-268 CNS = tested on: SF-268 CNS
SF-295 CNS = tested on: SF-295 CNS
SF-539 CNS = tested on: SF-539 CNS
SK-MEL-2 melanoma = tested on: SK-MEL-2 melanoma
SK-MEL-28 melanoma = tested on: SK-MEL-28 melanoma
SK-MEL-5 melanoma = tested on: SK-MEL-5 melanoma
SK-OV-3 ovarian = tested on: SK-OV-3 ovarian
SN12C renal = tested on: SN12C renal
SNB-19 CNS = tested on: SNB-19 CNS
SNB-75 CNS = tested on: SNB-75 CNS
SR leukemia = tested on: SR leukemia
SW-620 colon = tested on: SW-620 colon
T-47D breast = tested on: T-47D breast
TK-10 renal = tested on: TK-10 renal
U251 CNS = tested on: U251 CNS
UACC-257 melanoma = tested on: UACC-257 melanoma
UACC-62 melanoma = tested on: UACC-62 melanoma
UO-31 renal = tested on: UO-31 renal

Structure (SMILES): NCCn1c(=O)[nH]c(=O)[nH]c1=S
- GI50 (786-0 renal): > 100 µM
- TGI (786-0 renal): > 100 µM
- GI50 (A498 renal): > 100 µM
- TGI (A498 renal): > 100 µM
- GI50 (A549 NSCLC): > 100 µM
- TGI (A549 NSCLC): > 100 µM
- GI50 (ACHN renal): > 100 µM
- TGI (ACHN renal): > 100 µM
- GI50 (BT-549 breast): > 100 µM
- TGI (BT-549 breast): > 100 µM
- GI50 (CAKI-1 renal): > 100 µM
- TGI (CAKI-1 renal): > 100 µM
- GI50 (CCRF-CEM leukemia): > 100 µM
- TGI (CCRF-CEM leukemia): > 100 µM
- GI50 (COLO 205 colon): > 100 µM
- TGI (COLO 205 colon): > 100 µM
- GI50 (DU-145 prostate): > 100 µM
- TGI (DU-145 prostate): > 100 µM
- GI50 (EKVX NSCLC): > 100 µM
- TGI (EKVX NSCLC): > 100 µM
- GI50 (HCC-2998 colon): > 100 µM
- TGI (HCC-2998 colon): > 100 µM
- GI50 (HCT-116 colon): > 100 µM
- TGI (HCT-116 colon): > 100 µM
- GI50 (HCT-15 colon): 96.7 µM
- TGI (HCT-15 colon): > 100 µM
- GI50 (HL-60(TB) leukemia): > 100 µM
- TGI (HL-60(TB) leukemia): > 100 µM
- GI50 (HOP-62 NSCLC): > 100 µM
- TGI (HOP-62 NSCLC): > 100 µM
- GI50 (HOP-92 NSCLC): > 100 µM
- TGI (HOP-92 NSCLC): > 100 µM
- GI50 (HS 578T breast): > 100 µM
- TGI (HS 578T breast): > 100 µM
- GI50 (HT29 colon): > 100 µM
- TGI (HT29 colon): > 100 µM
- GI50 (IGROV1 ovarian): > 100 µM
- TGI (IGROV1 ovarian): > 100 µM
- GI50 (K-562 leukemia): 54.1 µM
- TGI (K-562 leukemia): > 100 µM
- GI50 (KM12 colon): > 100 µM
- TGI (KM12 colon): > 100 µM
- GI50 (LOX IMVI melanoma): > 100 µM
- TGI (LOX IMVI melanoma): > 100 µM
- GI50 (M14 melanoma): > 100 µM
- TGI (M14 melanoma): > 100 µM
- GI50 (MALME-3M melanoma): > 100 µM
- TGI (MALME-3M melanoma): > 100 µM
- GI50 (MCF7 breast): 61.1 µM
- TGI (MCF7 breast): > 100 µM
- GI50 (MDA-MB-231 breast): > 100 µM
- TGI (MDA-MB-231 breast): > 100 µM
- GI50 (MDA-MB-435): > 100 µM
- TGI (MDA-MB-435): > 100 µM
- GI50 (MOLT-4 leukemia): > 100 µM
- TGI (MOLT-4 leukemia): > 100 µM
- GI50 (NCI-H226 lung): > 100 µM
- TGI (NCI-H226 lung): > 100 µM
- GI50 (NCI-H23 lung): > 100 µM
- TGI (NCI-H23 lung): > 100 µM
- GI50 (NCI-H460 lung): 39.2 µM
- TGI (NCI-H460 lung): > 100 µM
- GI50 (NCI-H522 lung): > 100 µM
- TGI (NCI-H522 lung): > 100 µM
- GI50 (NCI/ADR-RES ovarian): > 100 µM
- TGI (NCI/ADR-RES ovarian): > 100 µM
- GI50 (OVCAR-3 ovarian): > 100 µM
- TGI (OVCAR-3 ovarian): > 100 µM
- GI50 (OVCAR-4 ovarian): > 100 µM
- TGI (OVCAR-4 ovarian): > 100 µM
- GI50 (OVCAR-5 ovarian): > 100 µM
- TGI (OVCAR-5 ovarian): > 100 µM
- GI50 (OVCAR-8 ovarian): > 100 µM
- TGI (OVCAR-8 ovarian): > 100 µM
- GI50 (PC-3 prostate): > 100 µM
- TGI (PC-3 prostate): > 100 µM
- GI50 (RPMI-8226 leukemia): > 100 µM
- TGI (RPMI-8226 leukemia): > 100 µM
- GI50 (RXF 393 renal): > 100 µM
- TGI (RXF 393 renal): > 100 µM
- GI50 (SF-268 CNS): > 100 µM
- TGI (SF-268 CNS): > 100 µM
- GI50 (SF-295 CNS): > 100 µM
- TGI (SF-295 CNS): > 100 µM
- GI50 (SF-539 CNS): > 100 µM
- TGI (SF-539 CNS): > 100 µM
- GI50 (SK-MEL-2 melanoma): > 100 µM
- TGI (SK-MEL-2 melanoma): > 100 µM
- GI50 (SK-MEL-28 melanoma): > 100 µM
- TGI (SK-MEL-28 melanoma): > 100 µM
- GI50 (SK-MEL-5 melanoma): > 100 µM
- TGI (SK-MEL-5 melanoma): > 100 µM
- GI50 (SK-OV-3 ovarian): > 100 µM
- TGI (SK-OV-3 ovarian): > 100 µM
- GI50 (SN12C renal): > 100 µM
- TGI (SN12C renal): > 100 µM
- GI50 (SNB-19 CNS): > 100 µM
- TGI (SNB-19 CNS): > 100 µM
- GI50 (SNB-75 CNS): > 100 µM
- TGI (SNB-75 CNS): > 100 µM
- GI50 (SR leukemia): > 100 µM
- TGI (SR leukemia): > 100 µM
- GI50 (SW-620 colon): > 100 µM
- TGI (SW-620 colon): > 100 µM
- GI50 (T-47D breast): > 100 µM
- TGI (T-47D breast): > 100 µM
- GI50 (TK-10 renal): > 100 µM
- TGI (TK-10 renal): > 100 µM
- GI50 (U251 CNS): > 100 µM
- TGI (U251 CNS): > 100 µM
- GI50 (UACC-257 melanoma): > 100 µM
- TGI (UACC-257 melanoma): > 100 µM
- GI50 (UACC-62 melanoma): > 100 µM
- TGI (UACC-62 melanoma): > 100 µM
- GI50 (UO-31 renal): > 100 µM
- TGI (UO-31 renal): > 100 µM
